Experimental data: US4826814A, “Tripeptide derivatives” (Dainippon Pharmaceutical Co., Ltd., priority 1986, dated 1989)
Starred links: 1 amine or outer side, 2 acyl side, 3 side chain; linkers in the order of their positions; H or OH if unused. Non-standard residues stand in square brackets, D forms with d. Residues, ends and D or L forms follow the SMILES beside them. *: point of attachment. d(γGlu) = O=C(O)[C@@H](CCC(=O)[*:2])N[*:1]; Oic = O=C(O)[C@@H]1C[C@@H]2CCCC[C@@H]2N1; Nicotinoyl = O=C(c1cccnc1)*

Legend:
Male STD-ddy strain mice = test: Toxicity: oral LD50 in mice; assay type: in vivo
From the text: Male STD-ddy strain mice weighing about 22 to 25 g were used.

[1] = biological target: T1, ACE preparation (rabbit lung) (Oryctolagus cuniculus, UniProt P12822); test: In vitro ACE inhibitory activity (hippuryl-L-histidyl-L-leucine substrate); assay type: biochemical; details: 37° C., 30 minutes, pH 8.3
T1 construct: an ACE preparation (rabbit lung); from tissue; host or cells: rabbit lung
T1 sequence (P12822 34-1310): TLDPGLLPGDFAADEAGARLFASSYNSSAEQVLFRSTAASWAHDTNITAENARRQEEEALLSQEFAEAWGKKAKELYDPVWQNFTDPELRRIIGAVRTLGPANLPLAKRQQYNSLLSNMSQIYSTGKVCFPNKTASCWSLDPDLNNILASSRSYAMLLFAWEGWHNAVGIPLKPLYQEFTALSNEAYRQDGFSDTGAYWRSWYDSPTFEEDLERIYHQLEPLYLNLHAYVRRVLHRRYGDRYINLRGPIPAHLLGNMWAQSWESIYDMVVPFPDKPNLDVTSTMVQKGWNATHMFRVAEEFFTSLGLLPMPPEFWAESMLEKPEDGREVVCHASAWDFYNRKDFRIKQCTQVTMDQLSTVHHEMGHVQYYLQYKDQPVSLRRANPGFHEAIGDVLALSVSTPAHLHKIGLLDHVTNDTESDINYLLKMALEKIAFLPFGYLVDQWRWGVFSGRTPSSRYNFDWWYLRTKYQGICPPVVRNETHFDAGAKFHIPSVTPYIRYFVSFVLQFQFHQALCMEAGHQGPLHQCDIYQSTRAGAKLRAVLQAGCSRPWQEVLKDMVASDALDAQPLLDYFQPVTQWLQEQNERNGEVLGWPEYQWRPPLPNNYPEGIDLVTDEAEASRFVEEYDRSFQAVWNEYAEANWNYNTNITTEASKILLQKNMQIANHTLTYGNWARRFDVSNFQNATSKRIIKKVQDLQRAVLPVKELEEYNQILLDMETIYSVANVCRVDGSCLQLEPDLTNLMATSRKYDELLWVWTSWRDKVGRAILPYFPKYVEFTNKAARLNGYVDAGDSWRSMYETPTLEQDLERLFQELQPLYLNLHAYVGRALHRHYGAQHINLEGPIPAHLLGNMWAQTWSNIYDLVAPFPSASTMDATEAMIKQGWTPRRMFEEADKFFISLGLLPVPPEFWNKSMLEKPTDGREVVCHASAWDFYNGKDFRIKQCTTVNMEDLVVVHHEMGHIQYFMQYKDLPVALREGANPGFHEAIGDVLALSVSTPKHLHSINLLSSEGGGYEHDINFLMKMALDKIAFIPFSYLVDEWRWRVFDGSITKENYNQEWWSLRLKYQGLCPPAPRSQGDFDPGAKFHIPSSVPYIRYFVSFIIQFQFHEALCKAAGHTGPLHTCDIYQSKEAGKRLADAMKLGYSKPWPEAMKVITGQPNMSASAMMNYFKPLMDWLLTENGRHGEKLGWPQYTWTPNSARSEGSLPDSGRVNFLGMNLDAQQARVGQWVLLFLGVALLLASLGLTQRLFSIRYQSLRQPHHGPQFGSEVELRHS
Protocol: The assay medium contained an ACE preparation (rabbit lung), synthetic substrate (hippuryl-L-histidyl-L-leucine 5 mM), NaCl (300 mM) and phosphate buffer (100 mM, pH 8.3). It was mixed to a final volume of 0.300 ml and incubated at 37° C. for 30 minutes in the presence or absence of test compounds. After the reaction was terminated by adding 300 μl of 1N HCl, hippuric acid formed was extracted with 2 volume of ethyl acetate. After ethyl acetate was evaporated and distilled water was added, the hippuric acid was determined from its absorbance at 228 nm by spectrophotometer (Hitachi 100-41).
The degree of ACE inhibition was calculated from activities with and without test compounds. The IC50 value (molar concentration required for the 50% inhibition of ACE activity) was obtained from a dose-inhibition curve.

[2] = biological target: angiotensin converting enzyme (ACE) (Homo sapiens, UniProt P12821); details: stated by the publication of Ksander et al.; cited from earlier work
Chain of angiotensin converting enzyme (ACE) (P12821 30-1306, species assumed): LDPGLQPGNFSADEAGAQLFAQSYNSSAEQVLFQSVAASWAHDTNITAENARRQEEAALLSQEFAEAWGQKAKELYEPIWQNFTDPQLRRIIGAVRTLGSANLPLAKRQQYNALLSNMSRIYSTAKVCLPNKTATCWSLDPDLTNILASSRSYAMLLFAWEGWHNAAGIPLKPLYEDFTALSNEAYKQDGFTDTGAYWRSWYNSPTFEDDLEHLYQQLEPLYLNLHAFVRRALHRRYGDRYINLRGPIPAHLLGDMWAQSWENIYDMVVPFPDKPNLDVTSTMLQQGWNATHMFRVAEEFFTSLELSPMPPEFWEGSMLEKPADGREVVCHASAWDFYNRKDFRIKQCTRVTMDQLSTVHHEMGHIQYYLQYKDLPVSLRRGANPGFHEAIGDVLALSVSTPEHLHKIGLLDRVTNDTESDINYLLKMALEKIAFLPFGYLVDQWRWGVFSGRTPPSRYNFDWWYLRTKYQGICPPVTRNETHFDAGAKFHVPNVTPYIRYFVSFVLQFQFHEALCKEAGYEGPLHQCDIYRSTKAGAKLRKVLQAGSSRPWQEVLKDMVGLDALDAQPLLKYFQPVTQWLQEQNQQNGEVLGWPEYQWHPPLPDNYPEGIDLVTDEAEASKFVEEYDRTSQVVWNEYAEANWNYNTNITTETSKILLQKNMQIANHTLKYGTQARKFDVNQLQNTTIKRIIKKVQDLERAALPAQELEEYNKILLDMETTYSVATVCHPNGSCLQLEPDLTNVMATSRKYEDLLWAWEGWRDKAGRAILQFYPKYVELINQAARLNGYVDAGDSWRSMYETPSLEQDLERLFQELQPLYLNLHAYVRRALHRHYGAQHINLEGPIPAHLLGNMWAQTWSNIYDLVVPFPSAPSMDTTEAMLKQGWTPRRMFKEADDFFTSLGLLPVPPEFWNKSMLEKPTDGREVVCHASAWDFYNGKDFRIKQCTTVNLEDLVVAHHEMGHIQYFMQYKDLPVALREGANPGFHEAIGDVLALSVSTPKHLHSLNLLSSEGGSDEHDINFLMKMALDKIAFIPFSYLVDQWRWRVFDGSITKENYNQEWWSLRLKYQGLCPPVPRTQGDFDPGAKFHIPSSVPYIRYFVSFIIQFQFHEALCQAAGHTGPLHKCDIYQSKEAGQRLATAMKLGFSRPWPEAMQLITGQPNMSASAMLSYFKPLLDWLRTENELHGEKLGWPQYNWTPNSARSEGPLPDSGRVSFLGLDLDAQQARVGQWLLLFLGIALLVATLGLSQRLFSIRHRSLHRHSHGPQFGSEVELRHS

renal hypertensive rats = test: Antihypertensive activity after single oral administration in two-kidney Goldblatt type renal hypertensive rats (tail-cuff blood pressure); assay type: in vivo, rat; details: for antihypertensive action after oral administration: in vivo test with rats
From the text: Male Sprague Dawley rats (5 weeks old) were subjected to constriction of the left renal artery with a silver clip (internal diameter: 0.22 mm) under light ether anesthesia. The right kidney and renal artery were left intact. About 6-10 weeks after clipping, rats showing a blood pressure above 180 mmHg were used. These treated rats are named two-kidney Goldblatt type renal hypertensive rats and considered as a typical model of reninangiotensin dependent hypertension.
The blood pressure was measured by a tail-cuff method using a programmed electro-sphygmomanometer (PE-300, Narco Biosystem, U. S. A.) after warming at 38° C. for 10 minutes in heating box.
The antihypertensive activity of test compounds was evaluated after single oral administration in renal hypertensive rats (3-5 rats/group).

In the case of `NCCCC[C@H](NC(=O)c1ccc(O)cc1)C(=O)N[C@H](CCC(=O)N1[C@H](C(=O)O)C[C@@H]2CCCC[C@@H]21)C(=O)O` [Example 51, (2S,3aS,7aS)-1-[N^2-(4-Hydroxybenzoyl)-L-lysyl-gamma-D-glutamyl)octahydro-1H-indole-2-carboxylic acid], the “oral LD50” value (Male STD-ddy strain mice) is reported as “more than 3,000 mg per kilogram of body weight” and the IC50 [1] is reported as 5.2 nM.

For `NCCCC[C@H](N)C(=O)N[C@H](CCC(=O)N1c2ccccc2C[C@H]1C(=O)O)C(=O)O` [1-(L-lysyl-γ-D-glutamyl)indoline-2(S)carboxylic acid, reference compound], the “in vitro inhibition of ACE” value [2] is given as “show in vitro inhibition of ACE”, the “antihypertensive action after oral administration” value (renal hypertensive rats) is given as “do not show any significant antihypertensive action” and the IC50 [1] is given as 18.8 nM.

In the case of `NCCCC[C@H](NC(=O)c1cccnc1)C(=O)N[C@H](CCC(=O)N1[C@H](C(=O)O)C[C@@H]2CCCC[C@@H]21)C(=O)O` [Example 15, (2S,3aS,7aS)-1-(N^2 -Nicotinoyl-L-lysyl-gamma-D-glutamyl)octahydro-1H-indole-2-carboxylic acid] (Nicotinoyl-Lys-[d(γGlu)]-[Oic]-OH), the “oral LD50” value (Male STD-ddy strain mice) is reported as “more than 3,000 mg per kilogram of body weight” and the IC50 [1] is reported as 6.4 nM.

In the case of `O=C(NCCCC[C@H](NC(=O)OCc1ccccc1)C(=O)N[C@H](CCC(=O)N1c2ccccc2C[C@H]1C(=O)O)C(=O)O)OCc1ccccc1` [1-(N^2,N^6dibenzyloxycarbonyl-L-lysyl-γ-D-glutamyl)indoline-2(S)carboxylic acid, reference compound], the “in vitro inhibition of ACE” value [2] is given as “show in vitro inhibition of ACE”, the “Charge in pressure at 9 hours administration” value (renal hypertensive rats; blood pressure, renal hypertensive rats, single oral administration, dose of 30 mg/kg, 9 hours) is given as -2 and the “antihypertensive action after oral administration” value (renal hypertensive rats) is given as “do not show any significant antihypertensive action”.
